Here are results for 1 molecule from patent publication US20020004072A1, “"COMPOSITION PROVIDING A SUSTAINED RELEASE OF L-HISTIDINE AND METHODS OF MANUFACTURE THEREOF"” (priority 1999, published 2002).

This series can be described thus: Bulk and tapped density measurement by standard pharmaceutical methods. In kind it is physicochemical. The protocol: Density measurements were carried out using standard pharmaceutical methods for the measurement of bulk and tapped density. A comparison of the apparent density of the freshly dispensed or bulk powder to that of powder after settling is shown in Table 4.

Turning to `N[C@@H](Cc1c[nH]cn1)C(=O)O` [L-Histidine], the Bulk Density (freshly dispensed or bulk powder) worked out at 0.55 g/mL. For the setting “powder after settling”, this molecule showed a Tapped Density of 0.79 g/mL.
